From US6306822A, “Phosphopeptides and methods of treating bone diseases” (Big Bear Bio, Inc., priority 1998, dated 2001) come the findings set out here.

Assay [1] relates to bone formation and resorption. The assay can be described thus: In vitro or ex vivo bone formation and resorption assay systems. The note with it: typical in vitro or ex vivo bone formation and resorption assay systems. From the text:
The mechanism of action of these polypeptides is not completely understood. […] These peptides may increase to bone formation by attracting calcium which is solubilized in the biological fluids (serum, bone marrow, and so on, etc.). In addition, these peptides may have an effect on the formation or cross-linking of bone matrix proteins, by forming hydroxyapatite on or between such matrix proteins.

A further assay relates to ovariectomized rats. The assay can be described thus: Ovariectomized rat osteoporosis model, femur bone mineral content by DEXA. The assay is classed as in vivo, Harlan-Sprague-Dawley rats. The settings on record: Day 45, femur, OVX rats; compared with sham (positive) and OVX saline (negative) controls; doses and routes per b114 table. As for the experimental part:
Ovariectomized rats were chosen for the efficacy study of O-phosphoserine containing polypeptides. Ovaries were surgically resected from young female Harlan-Sprague-Dawley rats. Sham-operated rats were also prepared to use as positive controls.
After 7 days acclimation, the ovariectomized (OVX) rats were randomly divided into different treatment groups (6 animals per each group). Six sham-operated rats were assigned to the positive control group. Each group was fed a normal rat diet throughout the test period but received different treatments as summarized below: […]
The test samples four groups 3, 4, 5, and 6 were dissolved in saline and administered at once. Total volume of the sample solution was 1 ml and 0.1 ml per animal for oral and parenteral administration, respectively. Oral preparations were administered once a day and injection (s.c.) was every three days.
The group receiving the highest amount of oral Pse (group 3) was used to compare the efficacy of monomeric Pse versus Pse contained in a polypeptide.
On Days 0, 45, and 90 of the treatment, the femurs of most of the participating animals were subject to DEXA (dual energy X-ray absorptiometry) measurement, a typical method by which to study the status of bone growth. The animals were anesthetized and fixed on the bed when receiving the DEXA scan. […]

Turning to `N[C@@H](COP(=O)(O)O)C(=O)O` [Pse, O-phosphoserine], the “biological effect on bone” value in assay [1] is reported as “neither the O-phosphoserine-containingpolypeptides nor O-phosphoserine monomer had any biological effect”. In addition, the “bone mineral content (BMC) measured by DEXA” value in the assay on ovariectomized rats was “close to that of the negative control”.
